The record followed here is patent US12629383B2, “Cannabinoid compositions with high solubility and bioavailability” (priority 2020, dated 2026).

Like-named read-outs stand apart in the source and are kept apart here.

A short description of data set [1]: Animal study (pharmacokinetics), gavage, CBD blood concentration by HPLC. It is filed as in vivo. Conditions: rat. The method, then: According to the results of the dissolution study, compositions were prepared by adhering to the ratios of the present invention.
6 rats weighing 250+/−20 grams were used per each study group and a total of 5 groups were used. The compositions were administered by gavage at the human dose equivalent of 40 mg CBD per composition.
The results were analyzed by blood draws at each of the time points over an 8 hour period. An HPLC system was used to determine the blood concentration of CBD at the specified time points. The blood concentrations were given as (μg/mL)
The average CBD blood concentration of the groups were used to determine the pharmacokinetic parameters of Cmax, AUC and Tmax.

Data set [2] is described as follows: Dissolution study, USP type II apparatus, HPLC quantification of CBD released. The format is physicochemical. Conditions: 900 ml pH 6.8 phosphate buffer. The method, then:
Dissolution study was performed in 900 ml volume with a USP type II apparatus at pH 6.8 phosphate buffer. HPLC analysis (as per below) was used to quantify the amount of CBD released at each time point.
• Method: High Performance Liquid Chromatography (HPLC); Shimadzu LC-2040 3D Nexera-i • Wave lenght: 220 nm • Column 100 mm*4.6 mm; 5 μm C18 (InertSustain) • Column Temperature: 25° C. • AutoSampler Temperature: 5° C. • Injection Volume: 5 μL • Flow rate: 1.0 mL/min • Mobile Phase: Methanol:Water (85:[…]) • Diluent: Methanol • Run Time: Cannabidiol=3.7 min

In the case of `C=C(C)[C@@H]1CCC(C)=C[C@H]1c1c(O)cc(CCCCC)cc1O` [CBD API, Cannabidiol], in data set [1] (blood, oral, 40 mg CBD (human dose equivalent), hour 0, rats, human dose equivalent of 40 mg CBD, group average), the concentration at 0 h is 0 ng/mL. The concentration at […] in data set [1] (blood, oral, 40 mg CBD (human dose equivalent), hour 0.083, rats, human dose equivalent of 40 mg CBD, group average) came out at 8 ng/mL. Besides, in data set [1] (blood, oral, 40 mg CBD (human dose equivalent), hour 0.25, rats, human dose equivalent of 40 mg CBD, group average), the concentration at 0.25 h was determined as 11 ng/mL. The concentration at 0.5 h in data set [1] (blood, oral, 40 mg CBD (human dose equivalent), hour 0.5, rats, human dose equivalent of 40 mg CBD, group average) was found to be 15 ng/mL. Also, the concentration at 1 h in data set [1] (blood, oral, 40 mg CBD (human dose equivalent), hour 1, rats, human dose equivalent of 40 mg CBD, group average) was 13 ng/mL. Besides, the concentration at 2 h in data set [1] (blood, oral, 40 mg CBD (human dose equivalent), hour 2, rats, human dose equivalent of 40 mg CBD, group average) stood at 11 ng/mL. The concentration at 4 h in data set [1] (blood, oral, 40 mg CBD (human dose equivalent), hour 4, rats, human dose equivalent of 40 mg CBD, group average) was found to be 8 ng/mL. Further, the concentration at 8 h in data set [1] (blood, oral, 40 mg CBD (human dose equivalent), hour 8, rats, human dose equivalent of 40 mg CBD, group average) was found to be 6 ng/mL. In addition, the Tmax was 30 min in data set [1] (blood, po, 40 mg CBD (human dose equivalent), rats, read-out: Tmax after administration (converted)) and 30 min in data set [1] (blood, po, rats, human dose equivalent of 40 mg CBD, read-out: Tmax). Also, in data set [1] (blood, po, rats, human dose equivalent of 40 mg CBD), the AUC(0-t) amounted to 71 ng·h/mL. The highest concentration (Cmax) in data set [1] (po, rats, human dose equivalent of 40 mg CBD, from average blood concentration) was 15 ng/mL. For the same compound, the “% CBD API Released” value is reported as 1,89% in data set [2] (5 min); 1,89% in data set [2] (10 min); 2,05% in data set [2] (15 min); 2% in data set [2] (30 min); 2,01% in data set [2] (60 min); 1,97% in data set [2] (120 min). Further, the “% CBD API Released” value in data set [2] (180 min) is 2,2%; in data set [2] (240 min) it was 2,32%.

As usually defined, the AUC(0-t) is the area under the concentration-time curve up to a stated or last time point. For orientation: Cmax means the highest concentration seen after dosing.
